The text below walks through data of PubChem BioAssay (NCI).

Among the test systems are RXF 393 renal; OVCAR-5 ovarian; OVCAR-3 ovarian; U251 CNS; SF-295 CNS; LOX IMVI melanoma; MDA-MB-435; SK-MEL-28 melanoma; EKVX NSCLC; UACC-62 melanoma.
Assay in all cases: growth of human tumour cells (NCI), 48 h

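Tested at 5 concentrations; 48 h exposure; 96-well plates; endpoints linearly interpolated, else capped at highest concentration. GI50: concentration for 50% inhibition of growth. TGI is the concentration that stops growth completely.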

`COc1cc([C@@H]2c3cc4c(cc3[C@H](OC3OC5COC(c6ccccc6)OC5C(O)C3O)[C@H]3COC(=O)[C@H]23)OCO4)cc(OC)c1OC` (some centres undefined): the GI50 in the assay with RXF 393 renal was 0.264 µM; in the assay on OVCAR-5 ovarian, 2.58 µM; with OVCAR-3 ovarian it was 0.282 µM; in the assay on U251 CNS it was 0.34 µM; in the assay on SF-295 CNS it was 0.27 µM; in the assay on LOX IMVI melanoma, 0.427 µM. Besides, the GI50 in the assay with MDA-MB-435 is 0.245 µM; in the assay on SK-MEL-28 melanoma it was 0.71 µM; in the assay with EKVX NSCLC, 0.426 µM; in the assay on UACC-62 melanoma, 0.515 µM. The TGI in the assay with RXF 393 renal is 0.879 µM; with OVCAR-5 ovarian, 22.5 µM; with OVCAR-3 ovarian, 0.711 µM; with U251 CNS, 2.02 µM; in the assay on LOX IMVI melanoma it was 2.84 µM; in the assay with MDA-MB-435, 3.08 µM. For the same compound, the TGI in the assay on SK-MEL-28 melanoma was determined as 3.06 µM; in the assay on EKVX NSCLC, 24.2 µM; in the assay on UACC-62 melanoma, 22.1 µM.
With `CCCCC1(N=[N+]=[N-])C(=O)c2cccc3c2N(CCC3)C1=O` (centres undefined), the TGI in the assay with RXF 393 renal, in the assay with OVCAR-5 ovarian, with OVCAR-3 ovarian, with U251 CNS, in the assay with SF-295 CNS and with LOX IMVI melanoma was more than 100 µM in each case. The TGI in the assay on MDA-MB-435, in the assay on SK-MEL-28 melanoma, in the assay with EKVX NSCLC and in the assay on UACC-62 melanoma was more than 100 µM each time.
On to `COc1ccc([C@H]2c3cc(OC)c(OC)cc3C=C(C=O)C2CO)cc1OC` (some centres undefined), for which the GI50 with RXF 393 renal is 3.27 µM; in the assay with OVCAR-5 ovarian, 43 µM; in the assay on OVCAR-3 ovarian, 2.09 µM; with U251 CNS, 4.42 µM; in the assay on SF-295 CNS, 1.79 µM; in the assay on LOX IMVI melanoma, 7.44 µM. The GI50 in the assay with MDA-MB-435 was 0.914 µM; with SK-MEL-28 melanoma, 6.62 µM; with EKVX NSCLC it was 5.29 µM; in the assay with UACC-62 melanoma, 4.32 µM. In addition, the TGI in the assay with RXF 393 renal was more than 100 µM; in the assay with OVCAR-5 ovarian, more than 100 µM; with OVCAR-3 ovarian, 4.87 µM; in the assay on U251 CNS it was more than 100 µM; with SF-295 CNS it was 5.85 µM; in the assay with LOX IMVI melanoma, more than 100 µM. The TGI in the assay on MDA-MB-435 was 2.81 µM; with SK-MEL-28 melanoma it was more than 100 µM; with EKVX NSCLC, more than 100 µM; in the assay on UACC-62 melanoma it was more than 100 µM.
Turning to `N#Cc1c(N)nn(C(=O)c2ccc(NC(=O)c3ccccn3)cc2)c1-c1ccc(Cl)cc1`, the GI50 in the assay on RXF 393 renal is 3.11 µM; in the assay on OVCAR-5 ovarian, 8.65 µM; with OVCAR-3 ovarian, 3.9 µM; with U251 CNS it was 2.33 µM; with SF-295 CNS it was 3.06 µM; in the assay with LOX IMVI melanoma it was 5.75 µM. The GI50 in the assay on MDA-MB-435 was 4.81 µM; in the assay on SK-MEL-28 melanoma it was 5.68 µM; with EKVX NSCLC, 6.96 µM; in the assay with UACC-62 melanoma, 9.45 µM. For the same compound, the TGI in the assay on RXF 393 renal is 24.5 µM; in the assay on OVCAR-5 ovarian, more than 100 µM; with OVCAR-3 ovarian, 24.3 µM; in the assay with U251 CNS, 5.75 µM; with SF-295 CNS, 15.7 µM; in the assay on LOX IMVI melanoma, more than 100 µM. Also, the TGI in the assay with MDA-MB-435, in the assay on SK-MEL-28 melanoma, with EKVX NSCLC and in the assay with UACC-62 melanoma was more than 100 µM each time.
